Results: patent publication US5099030A, “Novel compounds, pharmaceutical compositions, and methods for treating inflammation and pain” (The Procter & Gamble Company, priority 1991, dated 1992)

Tests used:
Rodent Hot Plate Test = type: in vivo, male Sprague-Dawley rats
Procedure: The degree of thermal analgesia obtained is determined using the "rodent hot plate test" (RHP). The RHP system is designed to detect and evaluate agents which elevate the threshold for the perception of pain. Classically, this method has been utilized primarily to evaluate opioid (narcotic) analgesic agents, such as morphine.
Male Sprague-Dawley rats (Charles River Breeding Laboratories Inc.) weighing between 100 and 125 grams upon arrival are used to evaluate the compounds of the present invention. Animals are double housed in stainless steel cages, and are fed Purina Rat Chow and tap water ad libitum. The animals are food fasted the afternoon proceeding the day of the study, and food is returned 5 hours post-treatment. Animals not being dosed by oral gavage are not fasted.
The apparatus for evaluating analgesic activity consists of an insulated copper hot plate whose surface is maintained at 55°±0.5° C. by a circulating water bath. A bottomless glass container (12" (30 cm) tall by 8" (20 cm) diameter) is used to restrict the animal to a defined area of the hot plate. After dosing, the animal is placed through the top opening of the container, and a stop watch is started when the animal makes contact with the plate. The stop-watch is stopped upon either of the following visually observed end points: (1) licking or biting of either hind paw, or (2) jumping. If the jump is not successful but both hind paws leave the surface of the plate in an effort to jump, this is considered jumping. The stop-watch is stopped at the end point and the animal is immediately removed from the hot plate. The time (latency) between the initial contact of the animal on the hot plate and the endpoint is recorded.
Prior to dosing, animals are tested on the hot plate. This is denoted as pretest or base line latency. Usually, the animals are dosed by oral gavage, using a 1 cubic cm glass syringe connected to a size 8 french catheter. The dose volume is 5 ml/kg. On occasion, the animals are dosed by either subcutaneous administration or intravenous injection. Using the subcutaneous administration, a 1 ml tuberculin syringe is connected to a 25 gauge 5/8 inch needle, and injected under the skin in the neck or back region. For intravenous dosing, a 1 ml tuberculin syringe is connected to a 25 gauge 3/4 inch winged infusion set, and injected into the tail vein. The dose volume for subcutaneous and intravenous routes is 1 ml/kg. The latency times are typically recorded at 1.5, 3, 5, and 24 hours post-treatment. Much shorter times are recorded for an intravenous administration.

[1] = Oral soft gelatin capsules in human (Example VIII); type: in vivo; conditions: two oral capsules, 225 mg of composition each, 60 kg human
Procedure: (§1) A composition for oral administration is prepared by combining the following ingredients:
The octadecenamide is dissolved in the sesame oil with the aid of sonication and is packaged in soft gelatin capsules using methods known in the art.

[2] = Oral syrup in human (Example IX); type: in vivo; conditions: one teaspoon of syrup, 70 kg adult human
Procedure: as §1
The above ingredients are combined to produce a syrup and are packaged under sterile conditions in 6 oz. bottles.

[3] = Topical application to human forearm (Example X); type: in vivo; conditions: for local analgesic effect: replacing N-((4-(2-methyl-2-aminopropoxy)-3-methoxyphenyl)-methyl)-9Z-octadecenamide
Procedure: A composition for topical administration is prepared by combining the following ingredients:
The octadecenamide is dissolved in a solution containing the other ingredients. Application of 0.4 ml of the resulting liquid to a 80 cm^2 portion of the forearm of a 60 kg human produces local analgesia which lasts approximately two days.

[4] = Mouse Abdominal Constriction Assay (phenylquinone writhing); type: in vivo, male CF-1 mice; conditions: for % Analgesia (3 hrs post-dose): 3 hrs post-dose (time of peak analgesic effect)
Procedure: Compounds of the present invention are tested for analgesic activity using the mouse abdominal constriction assay. This assay is described in Hendershot and Forsaith, J. Pharmacol. Exo.
Male CF-1 mice (Charles River Breeding Laboratories, Inc.), weighing approximately 20 grams and food fasted overnight, are used in these assays. Test compounds are prepared for oral (p.o.) or subcutaneous (s.c.) administration, with compounds of the present invention being prepared in acidified (1N acetic acid) distilled deionized water so that the appropriate dose is given in 0.2 mls to a 20 gram mouse.
Ten minutes after the i.p. injection of phenylquinone, the number of full body writhes are counted for the succeeding ten minutes. Percent analgesia in this assay is calculated as follows: [formula]

[5] = 100 mg/kg oral, 24 hr post dose
[6] = 0.4 ml to 80 cm^2 of forearm, 60 kg human

COc1ccc2c3c1O[C@H]1[C@@H](O)C=C[C@H]4[C@@H](C2)N(C)CC[C@@]341 [Codeine Phosphate, reference compound]
Mean Latency Times (Rodent Hot Plate Test; 50 mg/kg oral, 1 hr post dose): 8.7 s | Mean Latency Times (Rodent Hot Plate Test; 50 mg/kg oral, 2 hr post dose): 6.4 s | Mean Latency Times (Rodent Hot Plate Test; 50 mg/kg oral, 4 hr post dose): 6.5 s | Mean Latency Times (Rodent Hot Plate Test; 100 mg/kg oral, 1 hr post dose): 8.5 s | Mean Latency Times (Rodent Hot Plate Test; 100 mg/kg oral, 2 hr post dose): 8.9 s | Mean Latency Times (Rodent Hot Plate Test; 100 mg/kg oral, 4 hr post dose): 6.0 s | Mean Latency Times (Rodent Hot Plate Test; 200 mg/kg oral, 1 hr post dose): 16.9 s | Mean Latency Times (Rodent Hot Plate Test; 200 mg/kg oral, 2 hr post dose): 21.0 s | Mean Latency Times (Rodent Hot Plate Test; 200 mg/kg oral, 4 hr post dose): 11.7 s | Mean Latency Times (Rodent Hot Plate Test; 400 mg/kg oral, 1 hr post dose): 26.5 s | Mean Latency Times (Rodent Hot Plate Test; 400 mg/kg oral, 2 hr post dose): 28.4 s | Mean Latency Times (Rodent Hot Plate Test; 400 mg/kg oral, 4 hr post dose): 24.6 s

CCCCCCCC/C=C\CCCCCCCCNC(=O)Cc1ccc(OCCN)c(OC)c1 [N-(9Z-octadecenyl)-4-(2-aminoethoxy)-3-methoxyphenylacetamide]
Mean Latency Times (Rodent Hot Plate Test; 10 mg/kg oral, 1.5 hr post dose): 6.7 s | Mean Latency Times (Rodent Hot Plate Test; 10 mg/kg oral, 3 hr post dose): 15.3 s | Mean Latency Times (Rodent Hot Plate Test; 10 mg/kg oral, 5 hr post dose): 13.5 s | Mean Latency Times (Rodent Hot Plate Test; 10 mg/kg oral, 24 hr post dose): 9.1 s | Mean Latency Times (Rodent Hot Plate Test; 25 mg/kg oral, 1.5 hr post dose): 10.5 s | Mean Latency Times (Rodent Hot Plate Test; 25 mg/kg oral, 3 hr post dose): 11.2 s | Mean Latency Times (Rodent Hot Plate Test; 25 mg/kg oral, 5 hr post dose): 10.8 s | Mean Latency Times (Rodent Hot Plate Test; 25 mg/kg oral, 24 hr post dose): 8.0 s | Mean Latency Times (Rodent Hot Plate Test; 50 mg/kg oral, 1.5 hr post dose): 24.5 s | Mean Latency Times (Rodent Hot Plate Test; 50 mg/kg oral, 3 hr post dose): 12.2 s | Mean Latency Times (Rodent Hot Plate Test; 50 mg/kg oral, 5 hr post dose): 10.6 s | Mean Latency Times (Rodent Hot Plate Test; 50 mg/kg oral, 24 hr post dose): 15.9 s | Mean Latency Times (Rodent Hot Plate Test; 100 mg/kg oral, 1.5 hr post dose): 16.4 s | Mean Latency Times (Rodent Hot Plate Test; 100 mg/kg oral, 3 hr post dose): 13.4 s | Mean Latency Times (Rodent Hot Plate Test; 100 mg/kg oral, 5 hr post dose): 11.9 s | Mean Latency Times (Rodent Hot Plate Test; [5]): 21.5 s | analgesia [1]: increased analgesic effect | reduction of inflammation [1]: substantially similar reduction of inflammation | analgesia [2]: producing analgesia | reduction of inflammation [2]: reducing inflammation | local analgesic effect [3]: substantially similar local analgesic effect

CCCCCCCC/C=C\CCCCCCCC(=O)NCc1ccc(OC[C@@H](N)C(C)C)c(OC)c1 [N-((4-(2(S)-amino-3-methylbutoxy)-3-methoxyphenyl)methyl)-9Z-octadecenamide]
analgesia [1]: increased analgesic effect | reduction of inflammation [1]: substantially similar reduction of inflammation | analgesia [2]: substantially similar reduction of inflammation and analgesic effect | reduction of inflammation [2]: substantially similar reduction of inflammation | local analgesic effect [3]: substantially similar local analgesic effect

CCCCCCCC/C=C\CCCCCCCC(=O)NCc1ccc(OCC(N)C(=O)O)c(OC)c1 (centres unmarked) [N-((4-(2-amino-2-carboxyethoxy)-3-methoxyphenyl)-methyl)-9Z-octadecenamide]
analgesia [1]: increased analgesic effect | reduction of inflammation [1]: substantially similar reduction of inflammation | analgesia [2]: substantially similar reduction of inflammation and analgesic effect | reduction of inflammation [2]: substantially similar reduction of inflammation | local analgesic effect [3]: substantially similar local analgesic effect

CCCCCCCC/C=C\CCCCCCCC(=O)NCc1ccc(OCC(N)CO)c(OC)c1 (centres unmarked) [N-((4-(2-amino-3-hydroxypropoxy)-3-methoxyphenyl)-methyl)-9Z-octadecenamide]
analgesia [1]: increased analgesic effect | reduction of inflammation [1]: substantially similar reduction of inflammation | analgesia [2]: substantially similar reduction of inflammation and analgesic effect | reduction of inflammation [2]: substantially similar reduction of inflammation | local analgesic effect [3]: substantially similar local analgesic effect

CCCCCCCCC(=O)NCc1ccc(OCCN)c(OC)c1 [N-((4-(2-aminoethoxy)-3-methoxyphenyl)-methyl)-nonanamide]
Mean Latency Times (Rodent Hot Plate Test; 50 mg/kg oral, 3 hr post dose): 7.5 s | Mean Latency Times (Rodent Hot Plate Test; 50 mg/kg oral, 5 hr post dose): 7.2 s | Mean Latency Times (Rodent Hot Plate Test; 50 mg/kg oral, 24 hr post dose): 8.1 s | Mean Latency Times (Rodent Hot Plate Test; 100 mg/kg oral, 3 hr post dose): 9.9 s | Mean Latency Times (Rodent Hot Plate Test; 100 mg/kg oral, 5 hr post dose): 10.2 s | Mean Latency Times (Rodent Hot Plate Test; [5]): 12.3 s | Mean Latency Times (Rodent Hot Plate Test; 200 mg/kg oral, 3 hr post dose): 10.8 s | Mean Latency Times (Rodent Hot Plate Test; 200 mg/kg oral, 5 hr post dose): 16.4 s | Mean Latency Times (Rodent Hot Plate Test; 200 mg/kg oral, 24 hr post dose): 22.0 s | Mean Latency Times (Rodent Hot Plate Test; 300 mg/kg oral, 3 hr post dose): 14.1 s | Mean Latency Times (Rodent Hot Plate Test; 300 mg/kg oral, 5 hr post dose): 14.6 s | Mean Latency Times (Rodent Hot Plate Test; 300 mg/kg oral, 24 hr post dose): 20.3 s | analgesia [1]: increased analgesic effect | reduction of inflammation [1]: substantially similar reduction of inflammation | analgesia [2]: substantially similar reduction of inflammation and analgesic effect | reduction of inflammation [2]: substantially similar reduction of inflammation

CCCCCCCC/C=C\CCCCCCCC(=O)NCc1ccc(OCC(C)(C)N)c(OC)c1 [N-((4-(2-methyl-2-aminopropoxy)-3-methoxyphenyl)-methyl)-9Z-octadecenamide]
analgesia [1]: increased analgesic effect | reduction of inflammation [1]: substantially similar reduction of inflammation | duration of local analgesia [3, 6]: approximately two | skin irritation [3, 6]: Little or no skin irritation

CCCCCCCCC(=O)NCc1ccc(OCC(C)(C)N)c(OC)c1 [N-((4-(2-methyl-2-aminopropoxy)-3-methoxyphenyl)-methyl)-nonanamide]
local analgesic effect [3]: substantially similar local analgesic effect

CCCCCCCC/C=C\CCCCCCCC(=O)NCc1ccc(OCCC(C)COCC(C)(C)N)c(OC)c1 (centres unmarked) [N-((4-(2-methyl-2-aminopropoxy)-3-methylbutoxy)-3-methoxyphenyl)methyl)-9Z-octadecenamide]
analgesia [2]: substantially similar reduction of inflammation and analgesic effect | reduction of inflammation [2]: substantially similar reduction of inflammation

CCCCCCCC/C=C\CCCCCCCC(=O)NCc1ccc(O)c(OC)c1 [N-Vanillyloleamide, N-vanillyloleamide, reference compound]
% Analgesia (3 hrs post-dose) ([4]; 0.75 mg/kg subcutaneous): 35.4% | % Analgesia (3 hrs post-dose) ([4]; 1.5 mg/kg subcutaneous): 62.8% | % Analgesia (3 hrs post-dose) ([4]; 2.25 mg/kg subcutaneous): 76.1% | % Analgesia (3 hrs post-dose) ([4]; 100 mg/kg oral): 36% | % Analgesia (3 hrs post-dose) ([4]; 200 mg/kg oral): 60% | % Analgesia (3 hrs post-dose) ([4]; 400 mg/kg oral): 79% | time of peak analgesic effect ([4]; mouse, in vivo): 3 hours post-dose

CCCCCCCCNC(=O)Cc1ccc(OCCN)c(OC)c1 [N-octanyl-4-(2-aminoethoxy)-3-methoxyphenylacetamide]
analgesia [1]: increased analgesic effect | reduction of inflammation [1]: substantially similar reduction of inflammation | analgesia [2]: substantially similar reduction of inflammation and analgesic effect | reduction of inflammation [2]: substantially similar reduction of inflammation | local analgesic effect [3]: substantially similar local analgesic effect
